Like-named read-outs stand apart in the source and are kept apart here.
What was measured:
Isocratic HPLC Log P = conditions: for Isocratic Log P: isocratic method, no details given
Excerpt: (§1) Isocratic data, measured at certain eluent compositions (typically as log k′x, for a given eluent composition X), can be used to calculate Log P data.

[1] = Gradient HPLC Log P determination from retention time (new method)
Description: (§2) An evaporated light scattering detector (Richard Scientific) and a platform LC mass spectrometer (Micromass) were used as detectors.
(§3) The mobile phase was a binary gradient of methanol/water. The stationary phase was a 4.6×50 mm column packed with 5 micron ODS-AQ. The injection size was 5 μL. The mobile phase gradient was adjusted to obtain a Log P nearly equal to the retention time on the HPLC column.
(§4) After 6.1 minutes, the column was set to re-equilibrate.
(§5) Retention times (X), shake flask log P (Y), slope and intercept from the above plot were used to calculate log P for these standards.
(§6) When log P was plotted versus the log of the capacity factor K for these standards, an following exponential curve was obtained, as shown in FIG. 3.
(§7) Using this exponential equation and HPLC retention times of these standards, Log P and Log K were calculated and compared with the retention times and literature Log P values.

[2] = cited from earlier work
physchem [3] = assay: physchem
Excerpt: as §1

physchem [4] = assay: physchem; remark: listed apart in the source
Description: as §2, §3, §4, §5, §6, §7

[5] = New Method Calc. Log P Y = 1.009X + 0.029, calculated from average gradient HPLC retention time X (ODS-AQ 4.6×50 mm, methanol/water), linear fit
[6] = Log P calc. by slope, calculated from Log K (capacity factor) with exponential equation Y=0.6972e^1.5966X
[7] = shake flask Log P values (lit.), Table 2
[8] = shake flask, literature, Table 3
[9] = shake flask, literature, Table 4
[10] = New Method Calc. Log P Y = 1.009X + 0.029

Row | chromatographic logP (Isocratic HPLC Log P) | chromatographic logP [1, 5] | SMILES | chromatographic logP (physchem [3]) | chromatographic logP (physchem [4]; Log P calc. by slope) | chromatographic logP (physchem [4]; [10]) | other results
1 | -1.05 | 0.32 | O=c1cc[nH]c(=O)[nH]1 [standard 1, uracil] |  |  |  | 
2 | 0.41 | 0.56 | NC(=O)c1ccccc1 [standard 2, benzamide] |  |  |  | chromatographic logP [1, 6]: 0.58
3 | 0.96 | 0.68 | CNC(=O)c1ccccc1 [standard 3, N-methyl benzamide] |  |  |  | chromatographic logP [1, 6]: 0.75; Lit. Log P [2, 7]: 0.86; Lit. Log P [2, 8]: 0.86; Lit. Log P [2, 9]: 0.86
4 | 0.96 | 0.98 | OCc1ccccc1 [standard 4, benzyl alcohol] |  |  |  | 
5 | 2.54 | 1.94 | CC(=O)c1ccccc1 [standard 6, acetophenone] |  |  |  | chromatographic logP [1, 6]: 2.22; Lit. Log P [2, 7]: 2.13; Lit. Log P [2, 8]: 2.13; Lit. Log P [2, 9]: 2.13
6 |  |  | Brc1ccccc1 [standard 7, bromobenzene] | 3.23 | 3.5 | 3.44 | 
7 |  |  | Cc1ccc(Cl)cc1 [standard 8, p-chloro toluene] | 3.57 | 3.74 | 3.74 | 
8 |  |  | CCOP(=S)(OCC)Oc1ccc([N+](=O)[O-])cc1 [standard 9, diethyl parathion] |  |  |  | Isocratic Log P (Isocratic HPLC Log P): 3.39
9 |  |  | c1ccc(-c2ccccc2)cc1 [standard 10, biphenyl] | 3.8 |  | 4.07 | Log P calc. by slope ([1]; calculated from Log K (capacity factor) with exponential equation Y=0.6972e^1.5966X): 3.98
10 |  |  | Cc1ccc2cc(C)ccc2c1 [standard 11, 2,6-dimethyl napthalene] |  |  |  | Isocratic Log P (Isocratic HPLC Log P): 4.49
11 |  |  | c1ccc2cc3ccccc3cc2c1 [standard 12, anthracene] | 4.46 | 4.27 |  | 
12 | 4.31 | 4.33 | c1ccc(Sc2ccccc2)cc1 [standard 13, phenyl sulfide] |  |  |  | chromatographic logP [1, 6]: 4.17; Lit. Log P [2, 7]: 4.45; Lit. Log P [2, 8]: 4.45; Lit. Log P [2, 9]: 4.45
13 |  |  | CCCN(CCC)c1c([N+](=O)[O-])cc(C(F)(F)F)cc1[N+](=O)[O-] [standard 14, trifluralin] | 5 | 4.57 | 4.88 | 
14 |  |  | COc1ccc(C(c2ccc(OC)cc2)C(Cl)(Cl)Cl)cc1 [standard 15, methoxychlor] | 4.26 | 4.37 | 4.61 | 
15 |  |  | ClC(Cl)=C(c1ccc(Cl)cc1)c1ccc(Cl)cc1 [standard 16, DDE] |  |  |  | Isocratic Log P (Isocratic HPLC Log P): 6.28
